Reference: US12180207B2 (ARRAY BIOPHARMA INC., priority 2018, dated 2024)

Assays:
dephosphorylated FGFR2 = dephosphorylated FGFR2 (Homo sapiens (Human), UniProt P21802); assay: FGFR enzyme binding assay (HTRF tracer displacement), FGFR2; details: 5 nM dephosphorylated FGFR2, average of multiple determinations if made
Procedure: The potency of compounds inhibiting human isoforms of FGFR kinase was determined using Life Technologies' Homogeneous Time Resolved Fluorescence (HTRF)-based binding assay technology. […] After a 60 minute incubation at 22° C., the extent of tracer displacement was determined using a PerkinElmer EnVision multimode plate reader via HTRF dual wavelength detection, and the percent of control (POC) was calculated using a ratiometric emission factor. One hundred POC was determined using no test compound, and 0 POC was determined in the presence of 1 μM of an appropriate control inhibitor.

[1] = target: phosphorylated FGFR3 (SEQ ID NO: 5, amino acids 449 to 759) (Homo sapiens (Human), UniProt P22607); assay: FGFR enzyme binding assay (HTRF tracer displacement), FGFR3; details: 5 nM phosphorylated FGFR3, average of multiple determinations if made
Outline: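 Compounds were tested for displacement of a tracer from human FGFR kinase in a time-resolved FRET binding format. After 60 minutes at 22° C, signal was read at two wavelengths and converted to percent of control, normalised between untreated wells and 1 μM reference inhibitor.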

[2] = target: recombinant human FGFR1 catalytic domain (amino acids 308-731) (Homo sapiens (Human), UniProt P11362); assay: FGFR1 enzyme activity assay (LanthaScreen TR-FRET); format: biochemical; details: 20 min incubation at 22° C., average of multiple determinations if made, read-out: FGFR1 Enz FRET IC50
Outline: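 His-tagged FGFR1 kinase domain with 100 nM Alexa Fluor 647-poly-GT peptide and ATP in pH 7.5 HEPES/MgCl2 buffer with 2% DMSO, 20 min at 22 °C. Quenched with EDTA plus 2 nM Eu-PY20 antibody and read after 60 min. IC50 comes from a 4-parameter fit of percent of control.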

[3] = target: recombinant human FGFR2 cytoplasmic domain (amino acids 403-822) (Homo sapiens (Human), UniProt P21802); assay: FGFR2 enzyme activity assay (LanthaScreen TR-FRET); format: biochemical; details: 15 μM ATP, 20 min incubation at 22° C., average of multiple determinations if made, read-out: FGFR2 Enz FRET IC50
Outline: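 His-tagged FGFR2 cytoplasmic domain ([…]) with 100 nM Alexa Fluor 647-poly-GT peptide and 15 μM ATP in HEPES/MgCl2/Triton buffer, pH 7.5, 2% DMSO, 20 min at 22 °C. EDTA-quenched, Eu-PY20 antibody added, TR-FRET read after 60 min.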

[4] = target: HEK-293 cells transfected with dox-inducible human wild type FGFR3 (Homo sapiens (Human), UniProt P22607); assay: FGFR3 pERK cell assay; format: cell-based; details: HEK-293 dox-inducible FGFR3, 1 hour compound, 100 ng/ml FGF-acidic; maximum concentration 5 μM
Outline: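 Doxycycline-induced cells preincubated 1 h at 37 °C with compound (1:3 dilutions, top 5 μM final), then stimulated 5 min with 100 ng/ml FGF-acidic. Lysate phospho-ERK1/2 measured by MSD sandwich assay; IC50 at 50 POC from 4-parameter fit, normalised to no-compound and control-compound wells.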

dephosphorylated FGFR2, sequence (P21802 22-821): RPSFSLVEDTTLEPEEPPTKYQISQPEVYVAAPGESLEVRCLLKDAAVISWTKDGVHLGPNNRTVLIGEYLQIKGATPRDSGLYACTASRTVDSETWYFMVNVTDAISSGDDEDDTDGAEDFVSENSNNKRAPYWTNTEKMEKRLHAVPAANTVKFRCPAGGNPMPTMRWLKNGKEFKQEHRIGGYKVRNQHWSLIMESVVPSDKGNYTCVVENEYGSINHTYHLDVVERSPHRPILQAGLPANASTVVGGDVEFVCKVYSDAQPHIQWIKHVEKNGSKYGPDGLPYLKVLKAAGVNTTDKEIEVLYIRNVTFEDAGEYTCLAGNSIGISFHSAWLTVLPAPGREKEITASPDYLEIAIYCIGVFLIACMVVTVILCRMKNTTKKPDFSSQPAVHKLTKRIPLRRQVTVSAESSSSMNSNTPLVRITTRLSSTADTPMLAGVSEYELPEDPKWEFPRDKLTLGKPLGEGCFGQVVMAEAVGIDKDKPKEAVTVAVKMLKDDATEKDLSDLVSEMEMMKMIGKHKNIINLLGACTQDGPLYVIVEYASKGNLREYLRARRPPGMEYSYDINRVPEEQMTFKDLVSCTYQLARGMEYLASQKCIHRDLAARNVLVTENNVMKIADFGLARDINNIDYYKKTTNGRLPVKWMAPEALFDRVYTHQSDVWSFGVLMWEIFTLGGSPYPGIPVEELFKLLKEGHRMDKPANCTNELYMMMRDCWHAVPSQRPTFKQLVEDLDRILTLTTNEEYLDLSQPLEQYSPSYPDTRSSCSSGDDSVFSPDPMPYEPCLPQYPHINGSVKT
recombinant human FGFR2 cytoplasmic domain (amino acids 403-822), sequence (P21802 402-821): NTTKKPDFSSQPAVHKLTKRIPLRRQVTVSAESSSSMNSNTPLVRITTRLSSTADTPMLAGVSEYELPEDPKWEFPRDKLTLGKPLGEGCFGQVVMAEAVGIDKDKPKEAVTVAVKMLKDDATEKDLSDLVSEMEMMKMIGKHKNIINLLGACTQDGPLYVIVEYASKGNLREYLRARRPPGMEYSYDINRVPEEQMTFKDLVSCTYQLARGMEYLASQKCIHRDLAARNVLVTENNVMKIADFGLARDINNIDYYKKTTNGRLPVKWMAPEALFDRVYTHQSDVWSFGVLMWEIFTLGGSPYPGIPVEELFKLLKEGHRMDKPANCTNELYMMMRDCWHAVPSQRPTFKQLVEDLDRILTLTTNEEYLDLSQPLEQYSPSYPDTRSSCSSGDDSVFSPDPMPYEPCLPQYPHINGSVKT
phosphorylated FGFR3 (SEQ ID NO: 5, amino acids 449 to 759), sequence (P22607 449-759): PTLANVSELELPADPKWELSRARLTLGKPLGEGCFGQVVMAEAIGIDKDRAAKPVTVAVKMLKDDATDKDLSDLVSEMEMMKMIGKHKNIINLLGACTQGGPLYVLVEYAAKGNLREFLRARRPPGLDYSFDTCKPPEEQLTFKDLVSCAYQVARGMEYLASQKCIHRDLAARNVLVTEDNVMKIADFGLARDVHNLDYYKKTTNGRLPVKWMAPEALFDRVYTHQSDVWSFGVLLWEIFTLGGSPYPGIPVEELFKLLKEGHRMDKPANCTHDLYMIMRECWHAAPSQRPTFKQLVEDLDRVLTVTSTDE
recombinant human FGFR1 catalytic domain (amino acids 308-731), sequence (P11362 other isoform, or with tags, fused parts or gaps): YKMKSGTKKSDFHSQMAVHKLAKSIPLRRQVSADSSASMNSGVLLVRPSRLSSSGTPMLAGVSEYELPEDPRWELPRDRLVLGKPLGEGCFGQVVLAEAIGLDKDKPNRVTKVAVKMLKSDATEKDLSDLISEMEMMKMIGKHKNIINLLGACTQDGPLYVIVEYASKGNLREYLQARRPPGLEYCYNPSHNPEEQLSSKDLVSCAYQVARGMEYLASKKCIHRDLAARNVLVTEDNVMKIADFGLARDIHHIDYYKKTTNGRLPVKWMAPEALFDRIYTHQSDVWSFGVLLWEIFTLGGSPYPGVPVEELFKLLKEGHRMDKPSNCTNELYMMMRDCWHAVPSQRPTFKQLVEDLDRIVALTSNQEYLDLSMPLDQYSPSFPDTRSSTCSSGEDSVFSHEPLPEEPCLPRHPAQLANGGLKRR
HEK-293 cells transfected with dox-inducible human wild type FGFR3, sequence (P22607 23-806): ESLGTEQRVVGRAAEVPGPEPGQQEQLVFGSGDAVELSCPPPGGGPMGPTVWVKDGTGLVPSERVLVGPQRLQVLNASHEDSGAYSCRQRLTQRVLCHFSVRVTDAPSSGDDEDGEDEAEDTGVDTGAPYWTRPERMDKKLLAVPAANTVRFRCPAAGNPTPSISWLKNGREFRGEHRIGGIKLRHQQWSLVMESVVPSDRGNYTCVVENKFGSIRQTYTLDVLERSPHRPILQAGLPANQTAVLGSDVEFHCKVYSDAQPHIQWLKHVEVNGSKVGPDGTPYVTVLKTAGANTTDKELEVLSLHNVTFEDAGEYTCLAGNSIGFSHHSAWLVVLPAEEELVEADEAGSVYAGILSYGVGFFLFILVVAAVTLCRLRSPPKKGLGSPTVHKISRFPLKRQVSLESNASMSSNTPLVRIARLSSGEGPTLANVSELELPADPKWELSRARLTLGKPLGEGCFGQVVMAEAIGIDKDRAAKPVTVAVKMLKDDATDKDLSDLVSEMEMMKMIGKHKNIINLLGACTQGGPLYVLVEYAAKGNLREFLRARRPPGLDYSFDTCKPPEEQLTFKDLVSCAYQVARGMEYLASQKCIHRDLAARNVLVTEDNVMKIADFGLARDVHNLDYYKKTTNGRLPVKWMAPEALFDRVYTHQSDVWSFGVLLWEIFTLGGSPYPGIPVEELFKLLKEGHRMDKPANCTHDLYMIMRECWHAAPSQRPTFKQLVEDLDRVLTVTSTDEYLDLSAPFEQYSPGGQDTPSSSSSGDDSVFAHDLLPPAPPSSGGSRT

Structure (SMILES): COc1cc(-c2cnn(C3CCN(C(=O)C4(F)CN(C(=O)/C=C/CN(C)C)C4)CC3)c2C)cn2ncc(C#N)c12 [Example 153, (E)-6-(1-(1-(1-(4-(dimethylamino)but-2-enoyl)-3-fluoroazetidine-3-carbonyl)piperidin-4-yl)-5-methyl-1H-pyrazol-4-yl)-4-methoxypyrazolo [1,5-a]pyridine-3-carbonitrile]
- IC50 (dephosphorylated FGFR2): 11 nM
- IC50 [1]: 2 nM
- IC50 [2]: 39 nM
- IC50 [3]: 4 nM
- IC50 [4]: 25 nM

Structure (SMILES): COC/C=C/C(=O)N1CC(F)(C(=O)N2CCC(n3ncc(-c4cc(OC)c5c(C#N)cnn5c4)c3C)CC2)C1 [Example 154, (E)-6-(1-(1-(3-fluoro-1-(4-methoxybut-2-enoyl)azetidine-3-carbonyl)piperidin-4-yl)-5-methyl-1H-pyrazol-4-yl)-4-methoxypyrazolo [1,5-a]pyridine-3-carbonitrile]
- IC50 (dephosphorylated FGFR2): 69 nM
- IC50 [1]: 19 nM
- IC50 [2]: 335 nM
- IC50 [3]: 16 nM
- IC50 [4]: 122 nM

Structure (SMILES): COc1cc(-c2cnn(C3CCN(C(=O)C4(F)CN(C(=O)/C=C/C(F)(F)F)C4)CC3)c2C)cn2ncc(C#N)c12 [Example 155, (E)-6-(1-(1-(3-fluoro-1-(4,4,4-trifluorobut-2-enoyl)azetidine-3-carbonyl)piperidin-4-yl)-5-methyl-1H-pyrazol-4-yl)-4-methoxypyrazolo [1,5-a]pyridine-3-carbonitrile]
- IC50 (dephosphorylated FGFR2): 51 nM
- IC50 [1]: 10 nM
- IC50 [2]: 255 nM
- IC50 [3]: 114 nM
- IC50 [4]: 31 nM

Structure (SMILES): CC#CC(=O)N1CC(F)(C(=O)N2CCC(n3ncc(-c4cc(OC)c5c(C#N)cnn5c4)c3C)CC2)C1 [Example 156, 6-(1-(1-(1-(but-2-ynoyl)-3-fluoroazetidine-3-carbonyl)piperidin-4-yl)-5-methyl-1H-pyrazol-4-yl)-4-methoxypyrazolo [1,5-a]pyridine-3-carbonitrile]
- IC50 (dephosphorylated FGFR2): 26 nM
- IC50 [1]: 18 nM
- IC50 [2]: 375 nM
- IC50 [3]: 84 nM
- IC50 [4]: 91 nM

Structure (SMILES): COc1cc(-c2cnn(C3CCN(C(=O)C4(C)CN(C(=O)/C=C/CN(C)C)C4)CC3)c2C)cn2ncc(C#N)c12 [Example 157, (E)-6-(1-(1-(1-(4-(dimethylamino)but-2-enoyl)-3-methylazetidine-3-carbonyl)piperidin-4-yl)-5-methyl-1H-pyrazol-4-yl)-4-methoxypyrazolo [1,5-a]pyridine-3-carbonitrile]
- IC50 (dephosphorylated FGFR2): 6 nM
- IC50 [1]: 6 nM
- IC50 [2]: 90 nM
- IC50 [3]: 30 nM
- IC50 [4]: 1150 nM

Structure (SMILES): COc1cc(-c2cnn(C3CCN(C(=O)C4(OC)CN(C(=O)/C=C/CN(C)C)C4)CC3)c2C)cn2ncc(C#N)c12 [Example 158, (E)-6-(1-(1-(1-(4-(dimethylamino)but-2-enoyl)-3-methoxyazetidine-3-carbonyl)piperidin-4-yl)-5-methyl-1H-pyrazol-4-yl)-4-methoxypyrazolo [1,5-a]pyridine-3-carbonitrile]
- IC50 (dephosphorylated FGFR2): 8 nM
- IC50 [1]: 2 nM
- IC50 [2]: 77 nM
- IC50 [3]: 30 nM
- IC50 [4]: 108 nM

Structure (SMILES): COc1cc(-c2cnn(C3CCN(CC4(OC)CN(C(=O)/C=C/CN(C)C)C4)CC3)c2C)cn2ncc(C#N)c12 [Example 159, (E)-6-(1-(1-((1-(4-(dimethylamino)but-2-enoyl)-3-methoxyazetidin-3-yl)methyl)piperidin-4-yl)-5-methyl-1H-pyrazol-4-yl)-4-methoxypyrazolo [1,5-a]pyridine-3-carbonitrile]
- IC50 (dephosphorylated FGFR2): 24 nM
- IC50 [1]: 3 nM
- IC50 [2]: 70 nM
- IC50 [3]: 7 nM
- IC50 [4]: 30 nM

Structure (SMILES): COc1cc(-c2cnn(C3CN(C(=O)C4(F)CN(C(=O)/C=C/CN(C)C)C4)C3)c2C)cn2ncc(C#N)c12 [Example 160, (E)-6-(1-(1-(1-(4-(dimethylamino)but-2-enoyl)-3-fluoroazetidine-3-carbonyl)azetidin-3-yl)-5-methyl-1H-pyrazol-4-yl)-4-methoxypyrazolo [1,5-a]pyridine-3-carbonitrile]
- IC50 (dephosphorylated FGFR2): 33 nM
- IC50 [1]: 16 nM
- IC50 [2]: 248 nM
- IC50 [3]: 179 nM
- IC50 [4]: 481 nM

Structure (SMILES): COc1cc(-c2c(C)nn(C3CCN(C(=O)C4(F)CN(C(=O)/C=C/CN(C)C)C4)CC3)c2C)cn2ncc(C#N)c12 [Example 161, (E)-6-(1-(1-(1-(4-(dimethylamino)but-2-enoyl)-3-fluoroazetidine-3-carbonyl)piperidin-4-yl)-3,5-dimethyl-1H-pyrazol-4-yl)-4-methoxypyrazolo [1,5-a]pyridine-3-carbonitrile]
- IC50 (dephosphorylated FGFR2): 44 nM
- IC50 [1]: 5 nM
- IC50 [2]: 154 nM
- IC50 [3]: 31 nM
- IC50 [4]: 133 nM

Structure (SMILES): CCc1c(-c2cc(OC)c3c(C#N)cnn3c2)cnn1C1CCN(C(=O)C2(F)CN(C(=O)/C=C/CN(C)C)C2)CC1 [Example 162, (E)-6-(1-(1-(1-(4-(dimethylamino)but-2-enoyl)-3-fluoroazetidine-3-carbonyl)piperidin-4-yl)-5-ethyl-1H-pyrazol-4-yl)-4-methoxypyrazolo [1,5-a]pyridine-3-carbonitrile]
- IC50 (dephosphorylated FGFR2): 462 nM
- IC50 [1]: 48 nM
- IC50 [2]: 311 nM
- IC50 [3]: 69 nM
- IC50 [4]: 357 nM

Structure (SMILES): COc1cc(-c2nn(C3CCN(C(=O)C4(F)CN(C(=O)/C=C/CN(C)C)C4)CC3)nc2C)cn2ncc(C#N)c12 [Example 163, (E)-6-(2-(1-(1-(4-(dimethylamino)but-2-enoyl)-3-fluoroazetidine-3-carbonyl)piperidin-4-yl)-5-methyl-2H-1,2,3-triazol-4-yl)-4-methoxypyrazolo [1,5-a]pyridine-3-carbonitrile]
- IC50 (dephosphorylated FGFR2): 125 nM
- IC50 [1]: 34 nM
- IC50 [2]: 2210 nM
- IC50 [3]: 1170 nM
- IC50 [4]: 207 nM

Structure (SMILES): COc1cc(-c2nnn(C3CCN(C(=O)C4(F)CN(C(=O)/C=C/CN(C)C)C4)CC3)c2C)cn2ncc(C#N)c12 [Example 164, (E)-6-(1-(1-(1-(4-(dimethylamino)but-2-enoyl)-3-fluoroazetidine-3-carbonyl)piperidin-4-yl)-5-methyl-1H-1,2,3-triazol-4-yl)-4-methoxypyrazolo [1,5-a]pyridine-3-carbonitrile]
- IC50 (dephosphorylated FGFR2): 14 nM
- IC50 [1]: 3 nM
- IC50 [2]: 102 nM
- IC50 [3]: 15 nM
- IC50 [4]: 188 nM

Structure (SMILES): COc1cc(-c2ccc(N3CCN(C(=O)C4(F)CN(C(=O)/C=C/CN(C)C)C4)CC3)nc2C)cn2ncc(C#N)c12 [Example 168, (E)-6-(6-(4-(1-(4-(dimethylamino)but-2-enoyl)-3-fluoroazetidine-3-carbonyl)piperazin-1-yl)-2-methylpyridin-3-yl)-4-methoxypyrazolo [1,5-a]pyridine-3-carbonitrile]
- IC50 (dephosphorylated FGFR2): 219 nM
- IC50 [1]: 34 nM
- IC50 [2]: 148 nM
- IC50 [3]: 50 nM
- IC50 [4]: 99 nM

Structure (SMILES): COc1cc(-c2cnn(C3CCN(C(=O)C4(F)CN(C(=O)/C=C/CN(C)C)C4)CC3)c2C)cn2ncc(Cl)c12 [Example 170, (E)-1-(3-(4-(4-(3-chloro-4-methoxypyrazolo [1,5-a]pyridin-6-yl)-5-methyl-1H-pyrazol-1-yl)piperidine-1-carbonyl)-3-fluoroazetidin-1-yl)-4-(dimethylamino)but-2-en-1-one]
- IC50 (dephosphorylated FGFR2): 22 nM
- IC50 [1]: 5 nM
- IC50 [2]: 903 nM
- IC50 [3]: 239 nM
- IC50 [4]: 55 nM

Structure (SMILES): COc1cc(-c2cnn(C3CCN(C(=O)C4(OC)CN(C(=O)/C=C/CN(C)C)C4)CC3)c2C)cn2ncc(Cl)c12 [Example 171, (E)-1-(3-(4-(4-(3-chloro-4-methoxypyrazolo [1,5-a]pyridin-6-yl)-5-methyl-1H-pyrazol-1-yl)piperidine-1-carbonyl)-3-methoxyazetidin-1-yl)-4-(dimethylamino)but-2-en-1-one]
- IC50 (dephosphorylated FGFR2): 41 nM
- IC50 [1]: 5 nM
- IC50 [2]: 111 nM
- IC50 [3]: 19 nM
- IC50 [4]: 50 nM

Structure (SMILES): C=CC(=O)N1CC(O)(C(=O)N2CCC(n3ncc(-c4cc(OC)c5c(Cl)cnn5c4)c3C)CC2)C1 [Example 172, 1-(3-(4-(4-(3-chloro-4-methoxypyrazolo [1,5-a]pyridin-6-yl)-5-methyl-1H-pyrazol-1-yl)piperidine-1-carbonyl)-3-hydroxyazetidin-1-yl)prop-2-en-1-one]
- IC50 (dephosphorylated FGFR2): 125 nM
- IC50 [1]: 25 nM
- IC50 [2]: 856 nM
- IC50 [3]: 454 nM
- IC50 [4]: 171 nM
